Measurements reported in patent publication US10894786B2, “Substituted pyrazole derivatives as selective CDK12/13 inhibitors” (Aurigene Discovery Technologies Limited, priority 2018, dated 2021).
Read-outs that look alike come from different tables or passages of the source.

Assays:
CDK12 [1] = target: T1, CDK12 (Homo sapiens (Human), UniProt Q9NYV4); test: Biochemical assay for CDK12 (Kd determination), kinase-tagged phage/qPCR competition binding
Description: Kinase-tagged T7 phage strains were grown in parallel in 24-well blocks in an E. coli host derived from the BL21 strain. E. coli were grown to log-phase and infected with T7 phage from a frozen stock (multiplicity of infection=0.4) and incubated with shaking at 32° C. until lysis (90-150 minutes). The lysates were centrifuged (6,000×g) and filtered (0.2 μm) to remove cell debris. The remaining kinases were produced in HEK-293 cells and subsequently tagged with DNA for qPCR detection. […] The liganded beads were blocked with excess biotin and washed with blocking buffer (SeaBlock (Pierce), 1% BSA, 0.05% Tween 20, 1 mM DTT) to remove unbound ligand and to reduce non-specific phage binding. […] Test compounds were prepared as 40× stocks in 100% DMSO and directly diluted into the assay. All reactions were performed in polypropylene 384-well plates in a final volume of 0.02 ml. […] The kinase concentration in the eluates was measured by qPCR.
Target sequence in this assay (Q9NYV4 whole entry, species assumed): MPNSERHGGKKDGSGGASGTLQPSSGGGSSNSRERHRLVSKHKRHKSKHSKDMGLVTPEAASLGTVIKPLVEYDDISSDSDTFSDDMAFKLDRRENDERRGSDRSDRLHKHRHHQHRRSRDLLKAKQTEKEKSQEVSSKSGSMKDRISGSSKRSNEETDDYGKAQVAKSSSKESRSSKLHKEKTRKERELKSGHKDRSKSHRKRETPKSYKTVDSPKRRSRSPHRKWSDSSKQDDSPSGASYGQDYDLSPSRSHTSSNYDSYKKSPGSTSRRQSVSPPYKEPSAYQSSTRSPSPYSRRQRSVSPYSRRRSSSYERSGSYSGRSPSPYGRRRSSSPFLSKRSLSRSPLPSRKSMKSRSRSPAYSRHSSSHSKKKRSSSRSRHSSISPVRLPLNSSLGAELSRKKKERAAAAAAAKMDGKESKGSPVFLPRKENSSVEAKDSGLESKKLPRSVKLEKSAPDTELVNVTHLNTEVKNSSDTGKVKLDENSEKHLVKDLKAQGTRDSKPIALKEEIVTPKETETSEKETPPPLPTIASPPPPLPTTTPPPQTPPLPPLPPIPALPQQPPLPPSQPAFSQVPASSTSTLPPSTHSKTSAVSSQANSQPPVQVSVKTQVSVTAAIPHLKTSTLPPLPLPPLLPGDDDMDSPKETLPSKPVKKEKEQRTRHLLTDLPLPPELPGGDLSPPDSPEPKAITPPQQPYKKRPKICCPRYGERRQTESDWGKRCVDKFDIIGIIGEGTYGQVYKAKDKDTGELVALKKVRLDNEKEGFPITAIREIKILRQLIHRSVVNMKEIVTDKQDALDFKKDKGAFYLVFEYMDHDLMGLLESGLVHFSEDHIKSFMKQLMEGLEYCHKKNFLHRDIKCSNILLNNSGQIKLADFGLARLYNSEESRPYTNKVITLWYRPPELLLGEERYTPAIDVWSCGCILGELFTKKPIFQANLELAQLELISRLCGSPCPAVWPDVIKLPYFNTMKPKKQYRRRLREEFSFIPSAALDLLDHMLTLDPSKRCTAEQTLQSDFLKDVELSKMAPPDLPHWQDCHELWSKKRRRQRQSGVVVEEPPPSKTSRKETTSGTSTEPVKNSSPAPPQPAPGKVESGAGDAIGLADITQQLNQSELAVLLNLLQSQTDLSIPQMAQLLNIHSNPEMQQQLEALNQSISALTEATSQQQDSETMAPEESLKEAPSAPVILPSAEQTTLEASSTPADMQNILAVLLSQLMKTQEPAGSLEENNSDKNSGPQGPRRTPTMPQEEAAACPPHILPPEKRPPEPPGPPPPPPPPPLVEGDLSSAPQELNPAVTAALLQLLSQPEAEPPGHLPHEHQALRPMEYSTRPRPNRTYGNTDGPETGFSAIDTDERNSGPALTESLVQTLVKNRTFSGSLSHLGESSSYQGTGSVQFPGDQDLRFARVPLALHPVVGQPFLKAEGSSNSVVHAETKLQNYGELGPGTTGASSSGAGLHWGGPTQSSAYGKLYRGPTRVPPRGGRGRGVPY

CDK13 = CDK13 (Homo sapiens (Human), UniProt Q14004); test: Biochemical assay for CDK13, LanthaScreen Eu Kinase Binding Assay; details: for IC50: kinase tracer 236 100 nM; for Ratio CDK7/CDK13: ratio of IC50
Description: Binding of an inhibitor to the kinase competes for binding with the tracer, resulting in a loss of FRET signal.

CDK12 [2] = target: T1, CDK12; test: Biochemical assay for CDK12 (IC50 determination), LANCE TR-FRET; details: for IC50: ATP 100 μM, 60 min pre-incubation
Description: The inhibitory activity of the test compounds was assessed by the LANCE TR-FRET assay, which detects the ATP-dependent phosphorylation of an ULight-4E-BP1 (Thr37/Thr46) substrate peptide (100 nM) by CDK12 (30 nM). Briefly, the enzyme reaction was run in reaction buffer (25 mM HEPES (pH 7.5), 10 mM MgCl2, 0.01% BSA, 0.01% Triton x, 1 mM DTT). The assay was performed in 384-well plate format. The end concentration of the ATP substrate was 100 μM, and that of the ULight-4E-BP1 (Thr37/Thr46) substrate peptide was 100 nM, and of CDK12 was 30 nM. Pre-incubation of the compound and enzyme was performed for 60 min at room temperature. After 60 min incubation at room temperature, the reaction was terminated by the addition of 40 mM EDTA and 0.5 nM Eu-labeled anti-phospho-eIF4E-binding protein (Thr37/46) antibody in LANCE detection buffer. […] The readout was calculated as (acceptor counts/donor counts)×1000. The IC50 values were derived by fitting a sigmoidal dose-response curve to a plot of assay readout over inhibitor concentration.
Target sequence in this assay (Q9NYV4 whole entry, looked up, species assumed): as the sequence (Q9NYV4 whole entry, species assumed) above
Target sequence in this assay (O75909 whole entry partner, looked up, species assumed): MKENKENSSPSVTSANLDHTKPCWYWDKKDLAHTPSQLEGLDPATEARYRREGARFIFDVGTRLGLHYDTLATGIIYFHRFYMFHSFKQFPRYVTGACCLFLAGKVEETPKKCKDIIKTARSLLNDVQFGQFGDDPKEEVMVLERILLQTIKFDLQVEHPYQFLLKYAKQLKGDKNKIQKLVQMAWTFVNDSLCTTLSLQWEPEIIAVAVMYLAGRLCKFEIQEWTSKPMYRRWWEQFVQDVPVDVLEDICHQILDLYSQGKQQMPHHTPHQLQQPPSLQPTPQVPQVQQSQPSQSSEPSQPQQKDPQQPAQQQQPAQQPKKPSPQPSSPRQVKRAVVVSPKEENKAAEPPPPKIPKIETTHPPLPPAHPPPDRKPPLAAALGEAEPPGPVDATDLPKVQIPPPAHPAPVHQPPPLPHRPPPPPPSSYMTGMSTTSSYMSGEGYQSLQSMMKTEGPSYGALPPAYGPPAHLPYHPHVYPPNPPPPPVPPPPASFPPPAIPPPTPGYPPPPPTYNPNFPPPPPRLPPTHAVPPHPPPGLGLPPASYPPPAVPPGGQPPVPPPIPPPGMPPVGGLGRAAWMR

CDK7 = CDK7 (Homo sapiens (Human), UniProt P50613); test: Biochemical assay for CDK7, LANCE TR-FRET; details: read-out: CDK 7 IC50
Description: The inhibitory activity of the test compounds was assessed by the LANCE TR-FRET assay, which detects the ATP-dependent phosphorylation of an ULight-myelin basic protein (MBP) substrate peptide (100 nM) by CDK7 (10 nM). Briefly, the enzyme reaction was run in reaction buffer (20 mM HEPES (pH 7.5), 10 mM MgCl2, 0.01% Triton x, 100 μM Sodium Orthovanadate, 1 mM DTT). The assay was performed in 384-well plate. The end concentration of the ATP substrate was 1 mM/100 μM, and that of the ULight-MBP substrate peptide was 100 nM, and of CDK7 was 10 nM. Pre-incubation of the compound and enzyme was performed for 60 min at room temperature. After 60 min incubation at room temperature, the reaction was terminated by the addition of 40 mM EDTA and 1 nM Eu-labeled anti-phospho-MBP-binding protein antibody in the buffer. […] The readout was calculated as (acceptor counts/donor counts)×1000. The IC50 values were derived by fitting a sigmoidal dose-response curve to a plot of assay readout over inhibitor concentration.

CDK12 [3] = target: T1, CDK12; test: CDK12 plate based target engagement assay in Jurkat cells; type: cell-based
Description: Jurkat cells were treated with varying concentrations of the compound for 6 hours. The DMSO concentration was maintained at 0.1%. Cells were harvested and lysed. 200 μg of the lysate was incubated with 1 μM Bio-THZ531 in the presence of 1 mM DTT and incubated on a rocker at 4° C. overnight. 100 μL of this sample was added to pre-washed streptavidin coated plates and incubated at room temperature on a rocker for 2 hours. The plates were washed and incubated with CDK12 antibody for overnight at 4° C. Next day the plate was washed and incubated for 2 hours with HRP labelled anti rabbit secondary antibody. Bio-THZ531 bound CDK12 was determined using TMB substrate. […] Percentage CDK12 occupancy with the test compound was calculated over untreated control. Occupancy 50 was calculated by fitting the dose response data to sigmoidal curve fitting equation using GraphPad Prism software V5.
Target sequence in this assay (Q9NYV4 whole entry, looked up): as the sequence (Q9NYV4 whole entry, species assumed) above
Target sequence in this assay (O75909 whole entry partner, looked up): as the sequence (O75909 whole entry partner, looked up, species assumed) above

[4] = ATP 1 mM/100 μM, 60 min pre-incubation

Chain of CDK7 (P50613 whole entry, looked up, species assumed): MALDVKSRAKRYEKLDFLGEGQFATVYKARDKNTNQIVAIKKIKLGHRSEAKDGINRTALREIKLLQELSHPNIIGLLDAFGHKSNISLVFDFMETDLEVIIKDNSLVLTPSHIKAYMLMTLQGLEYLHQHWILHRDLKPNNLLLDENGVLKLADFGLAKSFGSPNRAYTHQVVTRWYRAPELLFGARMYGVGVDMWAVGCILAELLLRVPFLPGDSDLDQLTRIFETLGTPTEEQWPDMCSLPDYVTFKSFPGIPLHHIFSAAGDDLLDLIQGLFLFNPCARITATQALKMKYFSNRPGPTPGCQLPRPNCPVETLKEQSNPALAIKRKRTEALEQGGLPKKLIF
Chain of CDK7 (P51946 whole entry partner, looked up, species assumed): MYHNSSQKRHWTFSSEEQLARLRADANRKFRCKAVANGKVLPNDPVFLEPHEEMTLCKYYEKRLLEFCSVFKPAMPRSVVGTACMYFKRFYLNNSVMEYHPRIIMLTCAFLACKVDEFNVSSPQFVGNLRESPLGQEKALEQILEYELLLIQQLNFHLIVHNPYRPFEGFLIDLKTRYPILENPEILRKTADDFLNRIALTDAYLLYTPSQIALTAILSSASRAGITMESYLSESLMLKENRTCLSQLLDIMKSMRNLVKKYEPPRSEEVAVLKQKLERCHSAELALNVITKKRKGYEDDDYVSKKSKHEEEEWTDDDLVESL
Chain of CDK7 (P51948 whole entry partner, looked up, species assumed): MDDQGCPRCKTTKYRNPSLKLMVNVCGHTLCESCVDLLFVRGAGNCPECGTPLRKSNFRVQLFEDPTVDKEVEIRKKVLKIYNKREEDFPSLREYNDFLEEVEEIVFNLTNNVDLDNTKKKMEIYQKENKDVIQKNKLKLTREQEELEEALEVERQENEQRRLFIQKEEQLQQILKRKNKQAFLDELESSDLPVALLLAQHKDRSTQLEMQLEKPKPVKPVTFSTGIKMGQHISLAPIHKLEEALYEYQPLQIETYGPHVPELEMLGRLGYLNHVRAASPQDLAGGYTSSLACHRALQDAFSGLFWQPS
Chain of CDK13 (Q14004 whole entry, looked up, species assumed): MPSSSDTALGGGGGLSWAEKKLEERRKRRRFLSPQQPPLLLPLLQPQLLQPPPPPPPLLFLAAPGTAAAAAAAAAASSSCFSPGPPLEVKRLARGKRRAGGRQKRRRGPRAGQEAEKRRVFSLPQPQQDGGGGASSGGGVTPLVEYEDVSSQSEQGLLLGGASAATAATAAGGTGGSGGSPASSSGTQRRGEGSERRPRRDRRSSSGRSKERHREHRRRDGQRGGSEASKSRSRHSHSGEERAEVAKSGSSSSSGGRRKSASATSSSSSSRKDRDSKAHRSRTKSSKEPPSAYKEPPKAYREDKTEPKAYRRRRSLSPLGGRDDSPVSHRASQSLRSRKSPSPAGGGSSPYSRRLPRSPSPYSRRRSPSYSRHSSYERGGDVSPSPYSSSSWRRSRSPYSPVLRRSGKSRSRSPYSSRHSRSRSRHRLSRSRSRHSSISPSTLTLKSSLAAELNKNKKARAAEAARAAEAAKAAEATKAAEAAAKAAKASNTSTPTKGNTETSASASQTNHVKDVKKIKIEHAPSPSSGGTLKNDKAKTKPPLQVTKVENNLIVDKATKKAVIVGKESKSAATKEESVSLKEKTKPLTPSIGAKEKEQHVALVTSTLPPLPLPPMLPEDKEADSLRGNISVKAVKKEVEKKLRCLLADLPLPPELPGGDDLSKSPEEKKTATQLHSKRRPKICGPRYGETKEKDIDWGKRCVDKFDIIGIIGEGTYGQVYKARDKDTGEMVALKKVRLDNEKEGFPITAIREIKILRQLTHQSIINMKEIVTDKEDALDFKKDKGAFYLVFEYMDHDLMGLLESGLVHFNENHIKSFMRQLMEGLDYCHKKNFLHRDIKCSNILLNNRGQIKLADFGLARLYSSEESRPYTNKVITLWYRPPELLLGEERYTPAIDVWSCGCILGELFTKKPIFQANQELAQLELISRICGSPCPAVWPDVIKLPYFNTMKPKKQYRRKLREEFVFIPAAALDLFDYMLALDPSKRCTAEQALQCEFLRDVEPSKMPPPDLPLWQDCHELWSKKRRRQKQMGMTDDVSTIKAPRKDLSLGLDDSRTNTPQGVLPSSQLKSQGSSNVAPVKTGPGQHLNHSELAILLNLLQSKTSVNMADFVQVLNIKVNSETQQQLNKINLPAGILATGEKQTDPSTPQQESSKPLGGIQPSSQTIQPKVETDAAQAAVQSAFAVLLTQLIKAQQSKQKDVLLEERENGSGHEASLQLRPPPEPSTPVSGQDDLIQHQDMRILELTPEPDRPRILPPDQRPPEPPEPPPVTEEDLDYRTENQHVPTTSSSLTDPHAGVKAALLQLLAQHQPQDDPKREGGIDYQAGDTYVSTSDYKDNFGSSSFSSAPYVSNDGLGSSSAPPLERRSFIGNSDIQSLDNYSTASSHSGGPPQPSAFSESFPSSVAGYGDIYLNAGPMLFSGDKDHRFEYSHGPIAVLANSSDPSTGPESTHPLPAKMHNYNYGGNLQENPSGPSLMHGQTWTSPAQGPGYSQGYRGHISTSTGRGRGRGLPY
Chain of CDK13 (O75909 whole entry partner, looked up, species assumed): as the sequence (O75909 whole entry partner, looked up, species assumed) above

SMILES	Kd (CDK12 [1])	IC50 (CDK13)	Ratio CDK7/CDK13 (CDK13)	Ratio CDK7/CDK12 (CDK12 [2])	IC50 (CDK12 [2])	IC50 (CDK7; [4])	CDK12 Target Occupancy (Tocc50) μM in Jurkat cells (CDK12 [3]; Jurkat cells, 6 hours)	CDK12 Target Occupancy (Tocc50) μM in Jurkat cells (CDK12 [3])	IC50 (CDK7)
C=CC(=O)N1CCN(c2ccc(C(C)C(=O)Nc3cc(C4CC4)[nH]n3)cn2)CC1 (stereo not drawn) [Compound 20, 2-(6-(4-acryloylpiperazin-1-yl)pyridin-3-yl)-N-(5-cyclopropyl-1H-pyrazol-3-yl)propanamide]	< 25 nM	94 nM	22.23	21.11	99 nM	2090 nM			
C=CC(=O)N1CC=C(c2ccc(C(C)C(=O)Nc3cc(C4CC4)[nH]n3)cn2)CC1 (single isomer, unassigned) [Compound 5, 2-(1′-acryloyl-1′,2′,3′,6′-tetrahydro-[2,4′-bipyridin]-5-yl)-N-(5-cyclopropyl-1H-pyrazol-3-yl)propanamide]	25 to 100 nM	77 nM	129.87	7.64	1310 nM	> 10000 nM			
C=CC(=O)N1CCN(c2ccc(C(C)C(=O)Nc3cc(C4CC4)[nH]n3)cc2)CC1 (single isomer, unassigned) [Compound 18, 2-(4-(4-acryloylpiperazin-1-yl)phenyl)-N-(5-cyclopropyl-1H-pyrazol-3-yl)propanamide]	25 to 100 nM	11.7 nM			238 nM	2320 nM			
C=CC(=O)NC1CCC(c2ccc(C(C)C(=O)Nc3cc(C4CC4)n[nH]3)cc2)CC1 (single isomer, unassigned) [Compound 11, N-(4-(4-(1-((5-cyclopropyl-1H-pyrazol-3-yl)amino)-1-oxopropan-2-yl)phenyl)cyclohexyl)acrylamide]	25 to 100 nM	45 nM			1020 nM	3650 nM			
C=CC(=O)N1CC=C(c2ccc(C(C)C(=O)Nc3cc(C4CC4)[nH]n3)cn2)CC1 (stereo not drawn) [Compound 4, 2-(1′-acryloyl-1′,2′,3′,6′-tetrahydro-[2,4′-bipyridin]-5-yl)-N-(5-cyclopropyl-1H-pyrazol-3-yl)propanamide]	< 25 nM	3 nM	570.0	23.75	72 nM	1710 nM			
C=CC(=O)N1CC=C(c2ccc(C(C)C(=O)Nc3cc(C4CC4)[nH]n3)cc2F)CC1 (stereo not drawn) [Compound 44, 2-(4-(1-acryloyl-1,2,3,6-tetrahydropyridin-4-yl)-3-fluorophenyl)-N-(5-cyclopropyl-1H-pyrazol-3-yl)propanamide]		5.8 nM	151.72	97.77	9 nM	880 nM	0.009 µM		
C#CC(=O)N1CC=C(c2ccc(CC(=O)Nc3cc(C4CC4)[nH]n3)cn2)C1 [Compound 60, N-(5-cyclopropyl-1H-pyrazol-3-yl)-2-(6-(1-propioloyl-2,5-dihydro-1H-pyrrol-3-yl)pyridin-3-yl)acetamide]					12 nM		0.0088 µM		
C=CC(=O)N1CCC=C(c2ccc(C(C)C(=O)Nc3cc(C4CC4)[nH]n3)cc2)CC1 (stereo not drawn) [Compound 9, 2-(4-(1-acryloyl-2,3,6,7-tetrahydro-1H-azepin-4-yl)phenyl)-N-(5-cyclopropyl-1H-pyrazol-3-yl)propanamide]	25 to 100 nM	21 nM	313.57	27.43	240 nM	6580 nM			
CC#CC(=O)N1CCC=C(c2ccc(C(C)C(=O)Nc3cc(C4CC4)[nH]n3)cn2)C1 (stereo not drawn) [Compound 52, 2-(1′-(but-2-ynoyl)-1′,2′,5′,6′-tetrahydro-[2,3′-bipyridin]-5-yl)-N-(5-cyclopropyl-1H-pyrazol-3-yl)propanamide]		19 nM	115.26	9.64	227 nM	2190 nM	0.179 µM		
C=CC(=O)N1CC=C(c2ccc(C(C)C(=O)Nc3cc(C4CC4)[nH]n3)cn2)C1 (stereo not drawn) [Compound 46, 2-(6-(1-acryloyl-2,5-dihydro-1H-pyrrol-3-yl)pyridin-3-yl)-N-(5-cyclopropyl-1H-pyrazol-3-yl)propanamide]		6.9 nM			32 nM		0.003 µM		
C=CC(=O)NC1CCC(c2ccc(C(C)C(=O)Nc3cc(C4CC4)n[nH]3)cc2)CC1 (single isomer, unassigned) [Compound 10, N-(4-(4-(1-((5-cyclopropyl-1H-pyrazol-3-yl)amino)-1-oxopropan-2-yl)phenyl)cyclohexyl)acrylamide]	< 25 nM	18 nM			740 nM	5490 nM			
C=CC(=O)N1CC=C(c2ccc(CC(=O)Nc3cc(C4CC4)[nH]n3)cn2)C1 [Compound 53, 2-(6-(1-acryloyl-2,5-dihydro-1H-pyrrol-3-yl)pyridin-3-yl)-N-(5-cyclopropyl-1H-pyrazol-3-yl)acetamide]		0.9 nM	8655.55	779	10 nM	7790 nM	0.014 µM		
N#CN1CCC=C(c2ccc(CC(=O)Nc3cc(C4CC4)[nH]n3)cn2)C1 [Compound 61, 2-(1′-cyano-1′,2′,5′,6′-tetrahydro-[2,3′-bipyridin]-5-yl)-N-(5-cyclopropyl-1H-pyrazol-3-yl)acetamide]					6 nM		0.007 µM		
C=CC(=O)N1CC=C(c2ccc(C(C(=O)Nc3cc(C4CC4)[nH]n3)C(C)C)cn2)CC1 (stereo not drawn) [Compound 7, 2-(1′-acryloyl-1′,2′,3′,6′-tetrahydro-[2,4′-bipyridin]-5-yl)-N-(5-cyclopropyl-1H-pyrazol-3-yl)-3-methylbutanamide]	> 100 nM	398 nM	1.86			744 nM			
C#CC(=O)N1CC=C(c2ccc(C(C)C(=O)Nc3cc(C4CC4)[nH]n3)cn2)CC1 (stereo not drawn) [Compound 50, N-(5-cyclopropyl-1H-pyrazol-3-yl)-2-(1′-propioloyl-1′,2′,3′,6′-tetrahydro-[2,4′-bipyridin]-5-yl)propanamide]		7 nM	1.71					0.038 µM	12 nM
C=CC(=O)N1CCC=C(c2ccc(C(C)C(=O)Nc3cc(C4CC4)[nH]n3)cn2)C1 (stereo not drawn) [Compound 35, 2-(1′-acryloyl-1′,2′,5′,6′-tetrahydro-[2,3′-bipyridin]-5-yl)-N-(5-cyclopropyl-1H-pyrazol-3-yl)propanamide]	< 25 nM	6 nM	25.5	5.1	30 nM	153 nM			
C#CC(=O)N1CCC=C(c2ccc(CC(=O)Nc3cc(C4CC4)[nH]n3)cn2)C1 [Compound 58, N-(5-cyclopropyl-1H-pyrazol-3-yl)-2-(1′-propioloyl-1′,2′,5′,6′-tetrahydro-[2,3′-bipyridin]-5-yl)acetamide]		84 nM			49 nM		0.0097 µM		
